In US20010049372A1, “Antiviral nucleoside analogues” (BioChem Pharma Inc., priority 1998, published 2001):
Read-outs that look alike come from different tables or passages of the source.

Key:
Format in all cases: cell-based
HIV-1WRM8488 = test: Anti-HIV-1 assay, monocytropic strain (p24); details: Human immunodeficiency virus 1; HIV-1WRM8488, m/m cells, determined by p24
Procedure: (§1) ANTIVIRAL ASSAYS. The anti-HIV-1 activity of the compound A (−) were assessed by employing HIV-1IIIB in a variety of cell types as previously described (Gu et al., 1992, 1994, 1999; Rando et al., 1995; Salomon et al., 1994). Briefly, cells were incubated with virus at a multiplicity of infection (MOI) of 0.005 for T cell assays and an MOI of 0.5 for monocytic cell assays for 3 hrs. Unbound virus was then removed by washing the cells, followed by seeding the cells into a 96-well plate. The infected cells were cultured in the presence of a serial concentrations of the test compound for 5-7 days. The anti-HIV-1 efficacy was determined by testing for HIV-1 RT activity or p24 level in the cell culture supernatants. All assays were performed in duplicate. Zidovudine and/or lamivudine were used as controls in each experiment.
(§2) Furthermore, antiretroviral activity of the compound A (−) was also assessed using different types of HIV-1 strains. […]

NNRTI^R = test: Recombinant drug resistant HIV-1 variants (RT activity); details: Human immunodeficiency virus 1
Procedure: as §1
(§3) Recombinant HIV-1 variants were prepared by introducing the designed mutations into HXB2-D by site-directed mutagenesis as described (Gu et al. 1992, 1994). The virus stocks were prepared by transfecting MT-4 cells with infectious viral DNA constructs. Antiviral activity of the compound A (−) was evaluated as described in example 10.

JM4 = test: as above; details: Human immunodeficiency virus 1
Procedure: as §1, §3

PI^R = test: as above; details: Human immunodeficiency virus 1
Procedure: as §1, §3

E89G/M184V = test: as above; details: Human immunodeficiency virus 1
Procedure: as §1, §3

JM1 = test: as above; details: Human immunodeficiency virus 1, JM1
Procedure: as §1, §3

M184I = test: as above; details: Human immunodeficiency virus 1
Procedure: as §1, §3

M184V = test: as above; details: Human immunodeficiency virus 1
Procedure: as §1, §3

K65R/M184V = test: as above; details: Human immunodeficiency virus 1
Procedure: as §1, §3

L74V = test: as above; details: Human immunodeficiency virus 1
Procedure: as §1, §3

DU-145 = test: Cellular toxicity by [3H]-thymidine uptake; details: 72 hrs
Summary of the method: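 Cells plated at 1-2×10^3/well, pre-incubated 24 h, then exposed 72 h to 10-fold serial compound dilutions (10^−4 M to 10^−10 M). [3H]-thymidine was added for the final 18 h and DNA incorporation counted after hypotonic lysis and harvesting. CC50 derived from cpm relative to untreated controls.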

HIV-1IIIB = test: Anti-HIV-1 antiviral assay with HIV-1IIIB in various cell types (RT activity)
Procedure: as §1
Activity of the compound A (−) against HIV-1 in various cells. Anti-HIV-1 activity of the compound A (−) were tested in different types of cells, including human peripheral […] cells (PBMCs), T-cell (MT-2 and MT-4) and monocytic cell (U937) lines. The compound A (−) had submicromolar EC50s against HIV-1IIIB in different types of cells tested (Table 2).

HIV-1macBAL = test: Anti-HIV-1 assay, dual tropic strain (p24); details: determined by p24
Procedure: as §1, §2

[1] = Human immunodeficiency virus 1, HIV-1IIIB, MT-2 (4 determinations), RT activity, read-out: EC50
[2] = Human immunodeficiency virus 1, HIV-1IIIB, MT-4 (2 determinations), RT activity, read-out: EC50
[3] = Human immunodeficiency virus 1, MT2, HIV-1IIIB, MT-2 cells, determined by RT activity, read-out: EC50 (μM) ± S.D. in MT-2 cells
[4] = Human immunodeficiency virus 1, PBMC, HIV-1IIIB, PBMCs (3 determinations), RT activity, read-out: EC50
[5] = Human immunodeficiency virus 1, U-937, HIV-1IIIB, U937 (1 determination), RT activity, read-out: EC50
[6] = Human immunodeficiency virus 1, PBMC, PBMCs
[7] = Human immunodeficiency virus 1, m/m cells

| Structure (SMILES) | EC50 (HIV-1WRM8488) [nM] | EC50 (NNRTI^R) [nM] | EC50 (JM4) [nM] | EC50 (PI^R) [nM] | EC50 (E89G/M184V) [nM] | EC50 (JM1) [nM] | EC50 (M184I) [nM] | EC50 (M184V) [nM] | EC50 (K65R/M184V) [nM] | EC50 (L74V) [nM] | CC50 (DU-145; Table 14, read-out: CC50 (μM) [^3H]TTP incorporation in: U145) [µM] | EC50 (HIV-1IIIB; [1]) [µM] | EC50 (HIV-1IIIB; [2]) [µM] | EC50 (HIV-1IIIB; [3]) [µM] | EC50 (HIV-1IIIB; [4]) [µM] | EC50 (HIV-1IIIB; [5]) [µM] | EC50 (HIV-1macBAL; [6]) [nM] | EC50 (HIV-1macBAL; [7]) [nM] | CC50 (μM) [^3H-]TTP incorporation in: U-145 (DU-145; Table 4) |
| --- | --- | --- | --- | --- | --- | --- | --- | --- | --- | --- | --- | --- | --- | --- | --- | --- | --- | --- | --- |
| Cc1cn([C@H]2C[C@H](N=[N+]=[N-])[C@@H](CO)O2)c(=O)[nH]c1=O [Zidovudine, zidovudine] | < 1.1 | 6.1 | 270 | 17 | 22 | 27 | 9 | 20 | 31 | 10 | > 10 | 0.0051 | 0.015 | 0.0051 ± 0.0025 | 0.0027 | 0.027 | 43 | < 1.1 | – |
| Nc1nc(NC2CC2)c2ncn([C@H]3CO[C@@H](CO)O3)c2n1 [Compound A (-), (−)-(2R,4R)-2-hydroxymethyl-4-(2′-amino-6′-cyclopropylamino-purine-9′-yl)-1,3-dioxolane] | 28 | 100 | 580 | 200 | 510 | 1830 | 990 | 530 | 1100 | 620 | – | 0.082 | 0.14 | 0.083 | 0.22 | 0.82 | 4140 | 22 | – |
| Nc1ccn([C@@H]2CS[C@H](CO)O2)c(=O)n1 [Lamivudine, lamivudine] | – | 150 | 850 | 290 | > 40000 | > 40000 | > 40000 | > 40000 | > 40000 | 510 | – | 0.061 | 0.17 | 0.061 ± 0.028 | 0.035 | 0.014 | – | – | >500/100 |
